We go through nine compounds from US11492338B2, “Furan surfactant compositions and methods” (SIRONIX RENEWABLES, INC., priority 2020, dated 2022).

Values after ≈ are worked out from the molar mass of the structure shown. Where two headings read alike, the source gives them in different places. Marks after values point to notes of the source that are not given here.

A short description of series [1]: Stability tracking of oleo-furan sulfonic acid by liquid chromatography. It is filed as physicochemical. As to conditions: 8-week time course, room temperature and elevated temperature (42° C.). The text has this:
Another advantage of surfactant embodiments disclosed herein is their inherent stability, particularly in the acid form prior to neutralization (oleo-furan sulfonic acids). As noted elsewhere herein, structural stability is an issue in the production of the common anionic surfactant SLES, causing occasional ring closure of the labile ethoxy chain during ethoxylation and sulfation step, which leads to the formation of a carcinogenic byproduct (e.g., 1,4-dioxane).
The calcium and magnesium monoanionic surfactants were both observed to have high foaming and foam stability, which is attractive for a number of applications including home cleaning, personal care, detergents, cosmetics, ore floatation and oil recovery. […] Stability of the oleo-furan surfactant, specifically the acid form oleo-furan sulfonic acid that is a precursor to the calcium and other cation surfactants, was measured over an eight week time course at room temperature and elevated temperatures, the results of which can be seen in FIG. 1.

The nature of series [2]: Surface tension at critical micelle concentration. Format: physicochemical.
The nature of series [3]: Critical micelle concentration (CMC). Format: physicochemical.
Series [4] is described as follows: Calcium tolerance (Ca^2+ from CaCl2 until sustained precipitate). It is filed as physicochemical. The conditions noted are these: ppm of Ca^2+ from CaCl2 where sustained precipitate is noted; for Ca^2+ Tolerance: Table 3; for Calcium Tolerance: Table 2. Here is the method:
(§1) Synthesized surfactants including the structure depicted in Experimental Structure 1, as well as the corresponding Na, Li, NH4, and Mg surfactants, were tested to determine surfactant properties. These included the time required for the surfactant solution to wet cotton fabric, the amount of foam the surfactant generates when agitated, the tolerance of the surfactant to calcium ions in solution as a measure of surfactant performance in hard water, and the temperature below which the surfactant forms a solid precipitate, known as the Krafft Point.

A further series is described as follows: Krafft point. It is filed as physicochemical. How it is done:
as §1

The nature of series [5]: Solubility in deionized water at 20° C. Format: physicochemical.
For series [6] the following is noted: water; common sodium surfactants; cited from earlier work.

The Solubility is the dissolved amount per volume that the medium holds.

For `CCCCCCCCCCCC(=O)c1cc(S(=O)(=O)O)c(C)o1` [oleo-furan sulfonic acids], in series [1], the “degradation or byproduct formation by liquid chromatography” value is recorded as “negligible degradation or byproduct formation”.
On to `CCCCCCCCCCCC(=O)c1ccc(S(=O)(=O)[O-])o1.[Na+]` [Na^+ OFS-12-1/0], for which the “Surface Tension at critical micelle concentration” value in series [2] (Table 3) turned out to be 44 mN/m. Also, in series [3] (Table 3), the “CMC (critical micelle concentration)” value came out at 1735 ppm. The “Ca^2+ Tolerance” value in series [4] is on record as >50,000 ppm. Moreover, in “Krafft point” (Table 3), the “Krafft Point” value is below 0 °C.
`CCCCCCCCCCCCOCCOCCOCCOS(=O)(=O)[O-].[Na+]` [SLES, sodium lauryl ether sulfate, reference compound]: the “Surface Tension at critical micelle concentration” value in series [2] (Table 2) was 32 mN/m. Also, in series [3] (Table 2), the “CMC (critical micelle concentration)” value was 449 ppm. Also, the “Calcium Tolerance” value in series [4] is >50,000 ppm. In series [5] (Table 2), this compound had a Solubility of at least 1000 mg/mL. Moreover, in “Krafft point” (Table 2), the “Krafft Point” value is below 0 °C.
As for `CCCCCCCCCCCC(=O)c1cc(S(=O)(=O)O)c(C)o1` [Ca^2+], the “Surface Tension at critical micelle concentration” value in series [2] (Table 2) is reported as 33 mN/m. Further, the “CMC (critical micelle concentration)” value in series [3] (Table 2) is on record as 300 ppm. In addition, the “Calcium Tolerance” value in series [4] is >50,000 ppm. The Solubility in series [5] (Table 2, read-out: Solubility) worked out at 350 mg/mL (≈ 1020 mM). The “Krafft Point” value in “Krafft point” (Table 2) was below 0 °C.
Turning to `CCCCCCCCCCCC(=O)c1cc(S(=O)(=O)[O-])c(C)o1.CCCCCCCCCCCC(=O)c1cc(S(=O)(=O)[O-])c(C)o1.[Mg+2]` [Mg^2+], the “Surface Tension” value in series [2] (Table 2, recorded for saturated surfactant solution at 20° C.) is given as 38* mN/m. In series [4], the “Calcium Tolerance” value was >50,000 ppm. In addition, the Solubility in series [5] (Table 2) was found to be 10 mg/mL. Besides, the “Krafft Point” value in “Krafft point” (Table 2) was 20 °C.
For the compound sodium dodecylbenzene sulfonate, the Solubility in series [6] was 250 mg/mL.
Turning to `CCCCCCCCCCCC(=O)c1cc(S(=O)(=O)O)c(C)o1.N` [NH4^+], the “Surface Tension at critical micelle concentration” value in series [2] (Table 2) was determined as 39 mN/m. Also, the “CMC (critical micelle concentration)” value in series [3] (Table 2) was 3309 ppm. The “Calcium Tolerance” value in series [4] was >50,000 ppm. The Solubility in series [5] (Table 2) worked out at 1000 mg/mL. Further, in the series “Krafft point” (Table 2), the “Krafft Point” value was below 0 °C.
In the case of `CCCCCCCCCCCC(=O)c1cc(S(=O)(=O)[O-])c(C)o1.[Li+]` [Li^+], the “Surface Tension at critical micelle concentration” value in series [2] (Table 2) amounted to 45 mN/m. For the same compound, the “CMC (critical micelle concentration)” value in series [3] (Table 2) amounted to 1347 ppm. Moreover, in series [4], the “Calcium Tolerance” value is reported as >50,000 ppm. In addition, in series [5] (Table 2), the Solubility came to 300 mg/mL. For the same compound, in the series “Krafft point” (Table 2), the “Krafft Point” value is below 0 °C.
Consider `CCCCCCCCCCCC(=O)c1cc(S(=O)(=O)[O-])c(C)o1.[Na+]` [Na^+], for which the “Surface Tension at critical micelle concentration” value in series [2] (Table 2) and in series [2] (Table 3) was 42 mN/m each time. Besides, the “CMC (critical micelle concentration)” value in series [3] (Table 2) and in series [3] (Table 3) was 1480 ppm in each case. In addition, in series [4], the “Calcium Tolerance” value is reported as >50,000 ppm. Besides, the “Ca^2+ Tolerance” value in series [4] is reported as >50,000 ppm. The “Krafft Point” value in the series “Krafft point” (Table 2) and in “Krafft point” (Table 3) was below 0 °C throughout.
